{"source": "patent US10023570B2", "about": "(Array BioPharma, Inc., priority 2015, dated 2018)", "note": "Structures can show the parent of a compound that is named as a salt."}
{"target": "human KDR protein in HEK-293 cells (Homo sapiens (Human), UniProt P35968)", "sequence (P35968 20-1356)": "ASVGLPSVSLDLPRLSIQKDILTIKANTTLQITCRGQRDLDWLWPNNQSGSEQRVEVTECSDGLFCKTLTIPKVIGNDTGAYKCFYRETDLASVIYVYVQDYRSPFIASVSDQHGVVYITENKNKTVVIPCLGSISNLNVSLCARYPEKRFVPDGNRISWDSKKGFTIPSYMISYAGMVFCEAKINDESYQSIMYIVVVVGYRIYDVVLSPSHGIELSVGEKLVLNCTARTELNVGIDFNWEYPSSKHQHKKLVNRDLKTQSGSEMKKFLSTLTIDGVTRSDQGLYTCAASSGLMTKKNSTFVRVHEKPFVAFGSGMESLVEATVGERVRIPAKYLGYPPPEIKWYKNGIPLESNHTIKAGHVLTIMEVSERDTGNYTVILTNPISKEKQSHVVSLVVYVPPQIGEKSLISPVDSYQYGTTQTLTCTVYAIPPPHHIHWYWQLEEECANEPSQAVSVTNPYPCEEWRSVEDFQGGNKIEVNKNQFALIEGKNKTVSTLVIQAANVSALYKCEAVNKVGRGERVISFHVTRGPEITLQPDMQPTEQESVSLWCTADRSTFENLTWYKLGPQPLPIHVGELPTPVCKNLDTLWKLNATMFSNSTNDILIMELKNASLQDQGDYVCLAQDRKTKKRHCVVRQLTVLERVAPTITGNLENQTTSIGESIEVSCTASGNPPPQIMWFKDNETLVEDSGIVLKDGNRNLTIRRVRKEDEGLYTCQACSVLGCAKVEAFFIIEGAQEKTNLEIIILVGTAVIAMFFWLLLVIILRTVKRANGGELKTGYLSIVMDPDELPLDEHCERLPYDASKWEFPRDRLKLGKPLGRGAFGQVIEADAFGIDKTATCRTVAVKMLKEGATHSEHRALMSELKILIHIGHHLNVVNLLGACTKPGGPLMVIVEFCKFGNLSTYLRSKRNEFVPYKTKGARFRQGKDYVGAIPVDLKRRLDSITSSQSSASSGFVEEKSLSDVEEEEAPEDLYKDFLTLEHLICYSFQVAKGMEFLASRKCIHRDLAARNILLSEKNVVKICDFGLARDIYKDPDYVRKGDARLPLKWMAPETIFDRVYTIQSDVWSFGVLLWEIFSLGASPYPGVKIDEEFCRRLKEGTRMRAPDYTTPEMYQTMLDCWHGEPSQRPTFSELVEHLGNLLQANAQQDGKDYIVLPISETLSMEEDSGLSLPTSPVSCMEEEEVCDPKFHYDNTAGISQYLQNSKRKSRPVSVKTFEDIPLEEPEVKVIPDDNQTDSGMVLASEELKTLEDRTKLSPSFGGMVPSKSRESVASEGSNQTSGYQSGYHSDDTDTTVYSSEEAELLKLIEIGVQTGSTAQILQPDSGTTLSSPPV", "assay": "KDR Cell Assay (phospho-KDR in HEK-293 cells expressing inducible KDR)", "type": "cell-based", "conditions": "pKDR Cell HEK 10% FBS IC50, HEK-293 cells expressing inducible KDR, VEGF stimulated", "outline": "(§1)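 HEK-293 cells with inducible human KDR were treated with compound for 1 h in DMEM (0.25% DMSO final), then lysed. Phospho-KDR was quantified by Meso Scale immunoassay, expressed as percent of control, and IC50 taken where a 4-parameter logistic fit crossed 50 POC.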", "units": {"IC50": "nM"}}
{"smiles": "CCN1CCN(c2ccc(-c3cc(-c4cnn(C)c4)cn4ncc(C#N)c34)cn2)CC1", "note": "[Example 409, 4-(6-(4-ethylpiperazin-1-yl)pyridin-3-yl)-6-(1-methyl-1H-pyrazol-4-yl)pyrazolo[1,5-a]pyridine-3-carbonitrile]", "IC50": 1670}
{"smiles": "Cn1cnc(CN2CCN(c3ccc(-c4cc(-c5cnn(C)c5)cn5ncc(C#N)c45)cn3)CC2)c1", "note": "[Example 449, 4-(6-(4-((1-methyl-1H-imidazol-4-yl)methyl)piperazin-1-yl)pyridin-3-yl)-6-(1-methyl-1H-pyrazol-4-yl)pyrazolo[1,5-a]pyridine-3-carbonitrile]", "IC50": 1340}
{"smiles": "Cc1nn(C)cc1CN1CCN(c2ccc(-c3cc(-c4cnn(C)c4)cn4ncc(C#N)c34)cn2)CC1", "note": "[Example 440, 4-(6-(4-((1,3-dimethyl-1H-pyrazol-4-yl)methyl)piperazin-1-yl)pyridine-3-yl)-6-(1-methyl-1H-pyrazol-4-yl)pyrazolo[1,5-a]pyridine-3-carbonitrile]", "IC50": 1690}
{"smiles": "Cn1cc(-c2cc(-c3ccc(N4CCC5(CCCN5C(=O)OC(C)(C)C)CC4)nc3)c3c(C#N)cnn3c2)cn1", "note": "[Example 513, tert-butyl 8-(5-(3-cyano-6-(1-methyl-1H-pyrazol-4-yl)pyrazolo[1,5-a]pyridin-4-yl)pyridin-2-yl)-1,8-diazaspiro[4.5]decane-1-carboxylate]", "IC50": 2940}
{"smiles": "Cc1ccnc(CN2CCN(c3ccc(-c4cc(-c5cnn(C)c5)cn5ncc(C#N)c45)cn3)CC2)c1", "note": "[Example 443, 6-(1-methyl-1H-pyrazol-4-yl)-4-(6-(4-((4-methylpyridin-2-yl)methyl)piperazin-1-yl)pyridine-3-yl)pyrazolo[1,5-a]pyridine-3-carbonitrile]", "IC50": 653}
{"smiles": "Cc1cnc(CN2CCN(c3ccc(-c4cc(-c5cnn(C)c5)cn5ncc(C#N)c45)cn3)CC2)cn1", "note": "[Example 444, 6-(1-methyl-1H-pyrazol-4-yl)-4-(6-(4-((5-methylpyrazin-2-yl)methyl)piperazin-1-yl)pyridin-3-yl)pyrazolo[1,5-a]pyridine-3-carbonitrile]", "IC50": 1290}
{"smiles": "Cn1cc(-c2cc(-c3ccc(N4CCN(Cc5cccc(Cl)c5)CC4)nc3)c3c(C#N)cnn3c2)cn1", "note": "[Example 455, 4-(6-(4-(3-chlorobenzyl)piperazin-1-yl)pyridin-3-yl)-6-(1-yl)methyl-1H-pyrazol-4-pyrazolo[1,5-a]pyridine-3-carbonitrile]", "IC50": 464}
{"target": "human KDR protein in HEK-293 cells (Homo sapiens (Human), UniProt P35968)", "assay": "KDR Cell Assay (phospho-KDR in HEK-293 cells expressing inducible KDR)", "type": "cell-based", "conditions": "pKDR Cell HEK 10% FBS IC50, HEK-293 cells expressing inducible KDR, VEGF stimulated, 10% FBS", "outline": "as §1", "units": {"IC50": "nM"}}
{"smiles": "COCC(=O)N1CCN(c2ccc(-c3cc(-c4cnn(C)c4)cn4ncc(C#N)c34)cc2)CC1", "note": "[Example 292, 4-(4-(4-(2-methoxyacetyl)piperazin-1-yl)phenyl)-6-(1-methyl-1H-pyrazol-4-yl)pyrazolo[1,5-a]pyridine-3-carbonitrile]", "IC50": 1080}
{"smiles": "CCCc1onc(C)c1C(=O)N1CCN(c2ccc(-c3cc(-c4cnn(C)c4)cn4ncc(C#N)c34)cn2)CC1", "note": "[Example 367, 4-yl)-4-(6-(4-(3-methyl-5-6-(1-methyl-1H-pyrazol-propylisoxazole-4-carbonyl)piperazin-1-yl)pyridin-3-yl)pyrazolo[1,5-a]pyridine-3-carbonitrile 2,2,2-trifluoroacetate]", "IC50": 355}
{"smiles": "COc1ccc(C2(C(=O)N3CCN(c4ccc(-c5cc(-c6cnn(C)c6)cn6ncc(C#N)c56)cn4)CC3)CC2)cc1", "note": "[Example 344, 4-(6-(4-(1-(4-methoxyphenyl)cyclopropanecarbonyl)piperazin-1-yl)pyridin-3-yl)-6-(1-methyl-1H-pyrazol-4-yl)pyrazolo[1,5-a]pyridine-3-carbonitrile]", "IC50": 385}
{"smiles": "Cn1cc(-c2cc(-c3ccc(N4CCN(C(=O)N5CC6COCC6C5)CC4)nc3)c3c(C#N)cnn3c2)cn1", "note": "(stereo not drawn) [Example 123, 4-(6-(4-(hexahydro-1H-furo[3,4-c]pyrrole-5-carbonyl)piperazin-1-yl)pyridin-3-yl)-6-(1-methyl-1H-pyrazol-4-yl)pyrazolo[1,5-a]pyridine-3-carbonitrile]", "IC50": 1610}
{"smiles": "Cn1cc(-c2cc(-c3ccc(N4CCN(C(=O)[C@H]5CCCO5)CC4)nc3)c3c(C#N)cnn3c2)cn1", "note": "[Example 58, (R)-6-(1-methyl-1H-pyrazol-4-yl)-4-(6-(4-(tetrahydrofuran-2-carbonyl)piperazin-1-yl)pyridin-3-yl)pyrazolo[1,5-a]pyridine-3-carbonitrile]", "IC50": 439}
{"smiles": "Cn1cc(-c2cc(-c3ccc(N4CC[C@@H](C(=O)NCCC(F)(F)F)C4)nc3)c3c(C#N)cnn3c2)cn1", "note": "[Example 259, (R)-1-(5-(3-cyano-6-(1-methyl-1H-pyrazol-4-yl)pyrazolo[1,5-a]pyridin-4-yl)pyridin-2-yl)-N-(3,3,3-trifluoropropyl)pyrrolidine-3-carboxamide]", "IC50": 2770}
{"smiles": "Cn1ccc(-c2cc(-c3ccc(N4CCN(C(=O)[C@H](O)c5ccccc5)CC4)nc3)c3c(C#N)cnn3c2)n1", "note": "[Example 272, (R)-4-(6-(4-(2-hydroxy-2-phenylacetyl)piperazin-1-yl)pyridin-3-yl)-6-(1-methyl-1H-pyrazol-3-yl)pyrazolo[1,5-a]pyridine-3-carbonitrile]", "IC50": 575}
{"smiles": "Cn1cc(-c2cc(-c3ccc(N4CCN(C(=O)Cc5ccc(OC(F)(F)F)cc5)CC4)nc3)c3c(C#N)cnn3c2)cn1", "note": "[Example 357, 6-(1-methyl-1H-pyrazol-4-yl)-4-(6-(4-(2-(4-(trifluoromethoxy)phenyl)acetyl)piperazin-1-yl)pyridin-3-yl)pyrazolo[1,5-a]pyridine-3-carbonitrile 2,2,2-trifluoroacetate]", "IC50": 2040}
{"smiles": "Cn1cc(-c2cc(-c3ccc(N4CCN(C(=O)C5(c6ccccc6)CCC5)CC4)nc3)c3c(C#N)cnn3c2)cn1", "note": "[Example 27, 6-(1-methyl-1H-pyrazol-4-yl)-4-(6-(4-(1-phenylcyclobutane-1-carbonyl)piperazin-1-yl)pyridin-3-yl)pyrazolo[1,5-a]pyridine-3-carbonitrile]", "IC50": 651}
{"smiles": "Cn1cc(-c2cc(-c3ccc(N4CCN(C(=O)NCc5ccccc5)CC4)nc3)c3c(C#N)cnn3c2)cn1", "note": "[Example 129, N-benzyl-4-(5-(3-cyano-6-(1-methyl-1H-pyrazol-4-yl)pyrazolo[1,5-a]pyridin-4-yl)pyridin-2-yl)piperazine-1-carboxamide]", "IC50": 93.5}
{"smiles": "Cn1cc(-c2cc(-c3ccc(N4CCN(C(=O)C[C@H](N)c5ccccc5)CC4)nc3)c3c(C#N)cnn3c2)cn1", "note": "[Example 23, (S)-4-(6-(4-(3-amino-3-phenylpropanoyl)piperazin-1-yl)pyridin-3-yl)-6-(1-methyl-1H-pyrazol-4-yl)pyrazolo[1,5-a]pyridine-3-carbonitrile dihydrochloride]", "IC50": 45.4}
{"smiles": "CO[C@@H](C(=O)N1CCN(c2ncc(-c3cc(-c4cnn(C)c4)cn4ncc(C#N)c34)cn2)CC1)c1ccccc1", "note": "[Example 284, (R)-4-(2-(4-(2-methoxy-2-phenylacetyl)piperazin-1-yl)pyrimidin-5-yl)-6-(1-methyl-1H-pyrazol-4-yl)pyrazolo[1,5-a]pyridine-3-carbonitrile]", "IC50": 663}
{"smiles": "Cn1cc(-c2cc(-c3ccc(N4CCN(Cc5ccccc5)CC4)nc3)c3c(C#N)cnn3c2)cn1", "note": "[Example 139, 4-(6-(4-benzylpiperazin-1-yl)pyridin-3-yl)-6-(1-methyl-1H-pyrazol-4-yl)pyrazolo[1,5-a]pyridine-3-carbonitrile]", "IC50": 289}
{"smiles": "Cn1cc(-c2cc(-c3ccc(N4CCN(C(=O)CN5CCOCC5)CC4)nc3)c3c(C#N)cnn3c2)cn1", "note": "[Example 362, 6-(1-methyl-1H-pyrazol-4-yl)-4-(6-(4-(2-morpholinoacetyl)piperazin-1-yl)pyridin-3-yl)pyrazolo[1,5-a]pyridine-3-carbonitrile bis(2,2,2-trifluoroacetate)]", "IC50": 1860}
{"smiles": "Cn1cc(-c2cc(-c3ccc(N4CCN(C(=O)N5CC[C@@H](F)C5)CC4)nc3)c3c(C#N)cnn3c2)cn1", "note": "[Example 103, (R)-4-(6-(4-(3-fluoropyrrolidine-1-carbonyl)piperazin-1-yl)pyridin-3-yl)-6-(1-methyl-1H-pyrazol-4-yl)pyrazolo[1,5-a]pyridine-3-carbonitrile]", "IC50": 848}
{"smiles": "Cn1cc(-c2cc(-c3ccc(N4CCN(C(=O)CC(C)(C)C)CC4)cc3)c3c(C#N)cnn3c2)cn1", "note": "[Example 294, 4-(4-(4-(3,3-dimethylbutanoyl)piperazin-1-yl)phenyl)-6-(1-methyl-1H-pyrazol-4-yl)pyrazolo[1,5-a]pyridine-3-carbonitrile]", "IC50": 2100}
{"smiles": "Cn1cc(-c2cc(-c3ccc(N4CCN([C@@H]5CCC[C@H]5O)CC4)nc3)c3c(C#N)cnn3c2)cn1", "note": "[Example 163, 4-(6-(4-((1r,2r)-2-hydroxycyclopentyl)piperazin-1-yl)pyridin-3-yl)-6-(1-methyl-1H-pyrazol-4-yl)pyrazolo[1,5-a]pyridine-3-carbonitrile]", "IC50": 991}
{"smiles": "Cn1cc(-c2cc(-c3ccc(N4CCN(CC(O)c5ccc(F)cc5)CC4)nc3)c3c(C#N)cnn3c2)cn1", "note": "(stereo not drawn) [Example 164, 4-(6-(4-(2-(4-fluorophenyl)-2-hydroxyethyl)piperazin-1-yl)pyridin-3-yl)-6-(1-methyl-1H-pyrazol-4-yl)pyrazolo[1,5-a]pyridine-3-carbonitrile]", "IC50": 73.6}
{"smiles": "CCN(CC)C(C(=O)N1CCN(c2ccc(-c3cc(-c4cnn(C)c4)cn4ncc(C#N)c34)cn2)CC1)c1ccccc1", "note": "(stereo not drawn) [Example 364, 4-(6-(4-(2-(diethylamino)-2-phenylacetyl)piperazin-1-yl)pyridin-3-yl)-6-(1-methyl-1H-pyrazol-4-yl)pyrazolo[1,5-a]pyridine-3-carbonitrile bis(2,2,2-trifluoroacetate)]", "IC50": 4360}
{"smiles": "Cn1cc(-c2cc(-c3ccc(N4CC5(CCN(C(=O)OC(C)(C)C)CC5)C4)nc3)c3c(C#N)cnn3c2)cn1", "note": "[Example 223, tert-butyl 2-(5-(3-cyano-6-(1-methyl-1H-pyrazol-4-yl)pyrazolo[1,5-a]pyridin-4-yl)pyridin-2-yl)-2,7-diazaspiro[3.5]nonane-7-carboxylate]", "IC50": 1550}
